{"source": "patent US7468357B2", "about": "“Nucleosides with anti-hepatitis B virus activity” (Emory University, priority 1994, dated 2008)", "key": {"[1]": {"test": "Toxicity analysis by uptake of neutral red dye in 2.2.15 cell cultures", "settings": "human", "method": "(§1) Toxicity analyses were performed in order to assess whether any observed antiviral effects were due to a general effect on cell viability. The method used was based on the uptake of neutral red dye, a standard and widely used assay for cell viability in a variety of virus-host systems, including HSV (herpes simplex virus) and HIV. The test compounds were used in the form of 40 mM stock solutions in DMSO (frozen on dry ice). Daily aliquots of the test samples were made and frozen at −20° C. so that each individual aliquot would be subjected to a single freeze-thaw cycle. The daily test aliquots were thawed, suspended into culture medium at room temperature and immediately added to the cell cultures. The compounds were tested at 0.01 to 10 μM for antiviral activity. The compounds were tested for toxicity at concentrations from 1 to 300 μM.\n(§2) Toxicity analyses were performed in 96-well flat bottomed tissue culture plates. Cells for the toxicity analyses were cultured and treated with test compounds with the same schedule as used for the antiviral evaluations. Each compound was tested at 4 concentrations, each in triplicate cultures. Uptake of neutral red dye was used to determine the relative level of toxicity. The absorbance of internalized dye at […] (A510) was used for the quantitative analysis. Values are presented as a percentage of the average A510 values (± standard deviations) in 9 separate cultures of untreated cells maintained on the same 96-well plate as the test compounds."}, "Hepatitis B virus": {"system": "Hepatitis B virus", "test": "Inhibition of HBV replication in transfected HepG-2 (2.2.15) cells (HBV virion DNA and replicative intermediates, blot hybridization)", "type": "cell-based", "settings": "for Selectivity Index IC50/EC50 RI: cytotoxicity IC50 / RI EC50; for Selectivity Index IC50/EC50 Virion: cytotoxicity IC50 / virion EC50", "method": "The assay used herein to evaluate the ability of the disclosed compounds to inhibit the replication of HBV is described in detail in Korba and Gerin, Antiviral Res. 19: 55-70 (1992). […] The toxicity and anti-HBV activity of (−)-β-L-2-hydroxymethyl-5-(5-fluorocytosin-1-yl)-1,3-oxathiolane ((−)-β-L-FTC) and β-D-2′,3′-dideoxycytidine (β-D-ddC) are included as controls. The other compounds disclosed herein can be evaluated similarly.\nThe antiviral evaluations were performed on two separate passages of cells, two cultures per passage (4 cultures total). All wells, in all plates, were seeded at the same density and at the same time.\n(Korba and Gerin, Antiviral Res. 19: 55-70, 1992). The levels of integrated HBV DNA in each cellular DNA preparation (which remain constant on a per cell basis in these experiments) were used to calculate the levels of intracellular HBV DNA forms, thereby eliminating technical variations inherent in the blot hybridization assays.\nas §1"}, "[2]": {"system": "2.2.15 cells (HepG2 cells transformed with hepatitis virion)", "test": "Toxicity analysis by uptake of neutral red dye in 2.2.15 cell cultures", "method": "as §1, §2"}, "human DNA polymerase α": {"molecular_target": "T1, human DNA polymerase α (Homo sapiens, UniProt P09884)", "T1 sequence (P09884 1-1462)": "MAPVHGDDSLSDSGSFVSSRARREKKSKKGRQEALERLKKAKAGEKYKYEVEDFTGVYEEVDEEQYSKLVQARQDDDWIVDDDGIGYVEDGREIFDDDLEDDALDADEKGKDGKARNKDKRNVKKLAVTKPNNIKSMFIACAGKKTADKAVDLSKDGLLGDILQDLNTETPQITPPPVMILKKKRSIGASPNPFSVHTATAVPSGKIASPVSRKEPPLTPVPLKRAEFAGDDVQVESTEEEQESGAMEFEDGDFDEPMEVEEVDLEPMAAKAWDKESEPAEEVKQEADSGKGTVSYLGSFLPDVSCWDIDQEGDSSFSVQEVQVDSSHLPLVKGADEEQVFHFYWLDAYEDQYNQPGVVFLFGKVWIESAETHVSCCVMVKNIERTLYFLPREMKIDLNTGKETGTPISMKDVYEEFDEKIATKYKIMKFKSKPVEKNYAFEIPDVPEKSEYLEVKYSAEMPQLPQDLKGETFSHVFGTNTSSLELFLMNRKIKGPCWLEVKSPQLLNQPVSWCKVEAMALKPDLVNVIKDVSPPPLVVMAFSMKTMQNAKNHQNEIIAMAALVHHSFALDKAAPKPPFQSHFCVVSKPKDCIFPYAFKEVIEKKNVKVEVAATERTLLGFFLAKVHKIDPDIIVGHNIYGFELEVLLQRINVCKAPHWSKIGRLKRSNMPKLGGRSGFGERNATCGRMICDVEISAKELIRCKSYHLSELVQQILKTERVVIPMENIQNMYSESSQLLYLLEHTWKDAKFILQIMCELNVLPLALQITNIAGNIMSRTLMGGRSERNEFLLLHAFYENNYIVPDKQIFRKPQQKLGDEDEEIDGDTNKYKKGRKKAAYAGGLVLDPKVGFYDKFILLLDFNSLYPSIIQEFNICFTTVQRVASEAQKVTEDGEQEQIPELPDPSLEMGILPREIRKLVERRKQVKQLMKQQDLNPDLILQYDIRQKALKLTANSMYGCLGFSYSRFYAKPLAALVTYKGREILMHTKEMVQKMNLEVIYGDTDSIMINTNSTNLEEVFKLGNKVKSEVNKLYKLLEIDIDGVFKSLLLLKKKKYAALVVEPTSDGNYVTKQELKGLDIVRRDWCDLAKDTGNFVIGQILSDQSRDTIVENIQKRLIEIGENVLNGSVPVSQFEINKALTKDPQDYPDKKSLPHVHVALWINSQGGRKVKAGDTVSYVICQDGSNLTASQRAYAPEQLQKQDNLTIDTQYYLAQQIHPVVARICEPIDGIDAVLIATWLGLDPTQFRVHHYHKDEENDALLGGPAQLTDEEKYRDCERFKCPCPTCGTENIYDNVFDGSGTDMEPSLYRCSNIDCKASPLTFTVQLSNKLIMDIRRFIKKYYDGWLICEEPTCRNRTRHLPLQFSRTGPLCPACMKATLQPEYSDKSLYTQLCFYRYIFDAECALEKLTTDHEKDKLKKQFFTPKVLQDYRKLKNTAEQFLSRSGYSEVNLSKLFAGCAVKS", "test": "Inhibition of human DNA polymerase α by triphosphates", "type": "biochemical", "settings": "read-out: DNA Pol α Ki"}, "[3]": {"molecular_target": "woodchuck hepatitis virus DNA polymerase (Woodchuck hepatitis B virus, UniProt P03160)", "sequence (P03160 whole entry)": "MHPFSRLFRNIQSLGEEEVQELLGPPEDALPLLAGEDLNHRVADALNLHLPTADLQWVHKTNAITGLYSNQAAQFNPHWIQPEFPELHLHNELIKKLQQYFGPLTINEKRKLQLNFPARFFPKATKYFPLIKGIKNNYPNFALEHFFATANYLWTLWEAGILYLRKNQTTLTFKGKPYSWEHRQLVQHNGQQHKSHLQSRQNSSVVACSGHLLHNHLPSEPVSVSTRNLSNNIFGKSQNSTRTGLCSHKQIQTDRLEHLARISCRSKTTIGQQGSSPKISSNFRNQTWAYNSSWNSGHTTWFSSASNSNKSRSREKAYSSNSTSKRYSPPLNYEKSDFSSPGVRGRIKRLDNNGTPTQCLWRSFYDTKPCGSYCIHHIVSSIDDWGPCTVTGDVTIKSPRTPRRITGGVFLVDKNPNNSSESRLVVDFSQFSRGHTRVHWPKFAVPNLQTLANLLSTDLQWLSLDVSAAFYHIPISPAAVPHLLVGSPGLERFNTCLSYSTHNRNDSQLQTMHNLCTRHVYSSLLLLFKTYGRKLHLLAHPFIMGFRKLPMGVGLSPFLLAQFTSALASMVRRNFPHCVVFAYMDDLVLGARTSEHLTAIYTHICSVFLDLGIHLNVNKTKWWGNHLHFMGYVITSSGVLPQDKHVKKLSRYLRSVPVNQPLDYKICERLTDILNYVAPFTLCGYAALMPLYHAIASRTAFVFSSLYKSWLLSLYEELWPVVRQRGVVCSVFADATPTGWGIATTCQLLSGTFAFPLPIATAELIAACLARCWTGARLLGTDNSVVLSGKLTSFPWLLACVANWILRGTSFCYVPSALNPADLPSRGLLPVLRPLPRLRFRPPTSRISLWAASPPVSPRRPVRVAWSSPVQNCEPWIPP", "test": "Inhibition of woodchuck hepatitis virus DNA polymerase by triphosphates", "type": "biochemical", "settings": "read-out: WHB DNA Pol IC50"}, "human DNA polymerase β": {"molecular_target": "human DNA polymerase β (Homo sapiens, UniProt P06746)", "test": "Inhibition of human DNA polymerase β by triphosphates", "type": "biochemical", "settings": "read-out: DNA Pol β Ki"}}, "note": "Read-outs that look alike come from different tables or passages of the source.", "data": [{"smiles": "Cc1cn([C@@H]2CC(N=[N+]=[N-])[C@H](CO)O2)c(=O)[nH]c1=O", "note": "(stereo partly drawn) [β-L-AZT, 1-(3-Azido-2-3-dideoxy-β-L-erythro-pentofuranosyl) thymine]", "values": [{"measurement": "IC50", "setting": "[1]; Cytotoxicity IC50, Table 2, Hep G-2 (2.2.15) cells", "value": 1000, "unit": "µM"}, {"measurement": "EC50", "setting": "Hepatitis B virus; Hepatitis B virus, HepG2 2.2.15, read-out: HBV RI EC50, Table 2, replicative intermediates (intracellular DNA), transfected Hep G-2 (2.2.15) cells", "value": "> 10", "unit": "µM"}, {"measurement": "EC50", "setting": "Hepatitis B virus; Hepatitis B virus, HepG2 2.2.15, read-out: HBV Virion EC50, Table 2, extracellular DNA, transfected Hep G-2 (2.2.15) cells", "value": "> 10", "unit": "µM"}]}, {"smiles": "CC(=O)SCCOP(=O)(OCCSC(C)=O)OC[C@@H]1O[C@H](n2cc(C)c(=O)[nH]c2=O)C[C@H]1N=[N+]=[N-]", "note": "[Bis (Sate) β-L-AZTMP]", "values": [{"measurement": "IC50", "setting": "[2]; read-out: Cytotoxicity IC50, Table 2, Hep G-2 (2.2.15) cells", "value": 200, "unit": "µM"}, {"measurement": "Selectivity Index IC50/EC50 RI", "setting": "Hepatitis B virus; Table 2", "value": 25}, {"measurement": "Selectivity Index IC50/EC50 Virion", "setting": "Hepatitis B virus; Table 2", "value": 27}, {"measurement": "EC50", "setting": "Hepatitis B virus; Table 2, extracellular DNA, transfected Hep G-2 (2.2.15) cells, read-out: HBV Virion EC50", "value": 7.5, "unit": "µM"}, {"measurement": "EC50", "setting": "Hepatitis B virus; Table 2, replicative intermediates (intracellular DNA), transfected Hep G-2 (2.2.15) cells, read-out: HBV RI EC50", "value": 8, "unit": "µM"}]}, {"smiles": "Nc1ncnc2c1ncn2[C@@H]1CC[C@H](COP(=O)(O)OP(=O)(O)OP(=O)(O)O)O1", "note": "[β-L-ddATP]", "values": [{"measurement": "Ki", "setting": "human DNA polymerase α", "value": "> 100", "unit": "µM"}, {"measurement": "IC50", "setting": "[3]", "value": 2.1, "unit": "µM"}, {"measurement": "Ki", "setting": "human DNA polymerase β", "value": "> 100", "unit": "µM"}]}, {"smiles": "Nc1nc(=O)n([C@H]2O[C@@H](CO)C[C@H]2F)cc1F", "note": "[2′-F-β-L-5FDDC, 1-(2-Fluoro-2,3-dideoxy-β-L-threo-pentofuranosyl)-5-fluorocytosine]", "values": [{"measurement": "IC50", "setting": "[1]", "value": 210, "unit": "µM"}, {"measurement": "EC50", "setting": "Hepatitis B virus; Hepatitis B virus, HepG2 2.2.15, read-out: HBV RI EC50", "value": 5, "unit": "µM"}, {"measurement": "EC50", "setting": "Hepatitis B virus; Hepatitis B virus, HepG2 2.2.15, read-out: HBV Virion EC50", "value": 1.7, "unit": "µM"}, {"measurement": "Selectivity Index IC50/EC50 RI", "setting": "Hepatitis B virus; Table 2", "value": 42}, {"measurement": "Selectivity Index IC50/EC50 Virion", "setting": "Hepatitis B virus; Table 2", "value": 124}]}, {"smiles": "Nc1nc(=O)n([C@@H]2CC[C@H](CO)O2)cc1F", "note": "[β-L-FDDC, 2′,3′-Dideoxy-β-L-5-fluorocytidine]", "values": [{"measurement": "IC50", "setting": "[2]; read-out: Cytotoxity IC50 ± SD, Table 1, neutral red dye uptake, 2.2.15 cells", "value": "438 ± 57", "unit": "µM"}, {"measurement": "Inhibition of HBV replication (depression of HBV virion DNA and HBV RI), in words", "setting": "Hepatitis B virus; 2.2.15 cells", "value": "potent inhibitors of HBV replication"}, {"measurement": "Selectivity Index IC50/EC90 RI", "setting": "Hepatitis B virus; Table 1, cytotoxicity IC50 / RI EC90", "value": 91}, {"measurement": "Selectivity Index IC50/EC90 Virion", "setting": "Hepatitis B virus; Table 1, cytotoxicity IC50 / virion EC90", "value": "1,460"}, {"measurement": "EC90", "setting": "Hepatitis B virus; Table 1, extracellular DNA, transfected HEPG-2 (2.2.15) cells, read-out: HBV viron EC90 ± SD", "value": "0.3 ± 0.03", "unit": "µM"}, {"measurement": "EC50", "setting": "Hepatitis B virus; Table 1, replicative intermediates (intracellular DNA), transfected HEPG-2 (2.2.15) cells, read-out: HBV RI EC50 ± SD", "value": "2.8 ± 0.4", "unit": "µM"}, {"measurement": "EC90", "setting": "Hepatitis B virus; Table 1, replicative intermediates (intracellular DNA), transfected HEPG-2 (2.2.15) cells, read-out: HBV RI EC90 ± SD", "value": "4.8 ± 0.6", "unit": "µM"}]}, {"smiles": "Nc1nc(=O)n([C@@H]2CC[C@H](COP(=O)(O)OP(=O)(O)OP(=O)(O)O)O2)cc1F", "note": "[β-L-5FDDCTP]", "values": [{"measurement": "Ki", "setting": "human DNA polymerase α", "value": "> 100", "unit": "µM"}, {"measurement": "IC50", "setting": "[3]", "value": 2, "unit": "µM"}, {"measurement": "Ki", "setting": "human DNA polymerase β", "value": "> 100", "unit": "µM"}]}]}
